{
  "source": "patent US11021448B2",
  "about": "“1,3-dihydro-1,4-benzodiazepine-2-thiones for the treatment of CNS related diseases” (priority 2016, dated 2021)",
  "key": {"[1]": {"molecular_target": "T1, hM1 (Homo sapiens, UniProt P11229)", "T1 construct": "expressed in transfected cells; host or cells: CHO", "T1 sequence (P11229 1-460)": "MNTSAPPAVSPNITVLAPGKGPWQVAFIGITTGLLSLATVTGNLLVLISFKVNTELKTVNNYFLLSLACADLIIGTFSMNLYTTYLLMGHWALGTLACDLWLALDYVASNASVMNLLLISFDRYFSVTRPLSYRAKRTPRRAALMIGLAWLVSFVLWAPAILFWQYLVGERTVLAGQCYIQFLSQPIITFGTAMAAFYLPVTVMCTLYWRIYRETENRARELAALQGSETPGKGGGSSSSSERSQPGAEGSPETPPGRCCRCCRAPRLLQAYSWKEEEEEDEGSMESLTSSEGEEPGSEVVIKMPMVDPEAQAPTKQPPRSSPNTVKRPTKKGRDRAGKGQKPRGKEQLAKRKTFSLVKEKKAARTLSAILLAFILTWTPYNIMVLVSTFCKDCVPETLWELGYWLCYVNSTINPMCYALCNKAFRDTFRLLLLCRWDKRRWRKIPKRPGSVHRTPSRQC", "assay": "FLIPR intracellular calcium assay for modulator activity at the muscarinic M1 receptor in CHO human M1 cells", "type": "cell-based", "protocol": "The assay study the effect of several concentrations of test compounds on basal or acetylcholine-stimulated Ca^2+ levels using FLIPR.\nThe cell plate and the diluted compounds (1% DMSO final concentration) are placed on the platform of the FLIPR and the door closed. A signal test to check background fluorescence and basal fluorescence signal is performed. Laser intensity is adjusted if necessary. Two minutes preincubation with the diluted test compounds is provide to determine any agonist activity on the M1 receptor by comparison to 30 nM Acetylcholine control. In order to determine any modulator activity the diluted compounds were added to cells and after two minutes preincubation, the EC20 of acetylcholine is added followed by another two minutes preincubation before the measurement of intracellular Ca^2+ with a FLIPR (Molecular Devices)."}, "[2]": {"molecular_target": "T2, GABA-A alpha5 (α5β3γ2) (Homo sapiens, UniProt P18507+P31644)", "T2 construct": "expressed in transfected cells; host or cells: HEK293 (transient transfection; membranes)", "assay": "GABA A radioligand binding assay, competition for [3H]flumazenil", "conditions": "[3H]flumazenil 1 nM, HEK293 membranes", "protocol": "The ability of compounds present invention to bind to GABA A receptor subtypes was determined by competition for [^3H]flumazenil (85 Ci/mmol; Roche) binding to HEK293 cells expressing human (transiently transfected) receptors of composition α1β2γ2, and α5β3γ2.\nMembrane preparation Cell pellets were suspended in Krebs-tris buffer (5 mM KCl, 1.25 mM CaCl2), 1.25 mM MgCl2, 120 mM NaCl, 15 mM Tris; pH 7.5; binding assay buffer), homogenized by polytron for ca. 20 sec on ice and centrifuged for 60 min at 4° C. (50000 g; Sorvall, rotor: SM24=20000 rpm). The cell pellets were resuspended in Krebs-tris buffer and homogenized by polytron for ca. 15 sec on ice. Protein was measured (Bradford method, Bio-Rad) and aliquots of 1 mL were prepared and stored at −80° C.\nRadioligand binding assays were carried out in a volume of 200 uL (96-well plates) which contained 100 μL of cell membranes, [3H]flumazenil at a concentration of 1 nM for a1, a2, a3 subunits and 1 nM for a5 subunits and the test compound in the range of 3.16 μM to 0.1 μM. Nonspecific binding was defined by 10^−5 M diazepam and typically represented less than 5% of the total binding. […] After drying, filter-retained radioactivity was detected by liquid scintillation counting.\nKi values were calculated using Excel-Fit (Microsoft) and are the means of two determinations."}, "[3]": {"test_system": "GABA A", "assay": "Oocyte EP", "type": "cell-based", "conditions": "at 1 μM"}},
  "note": "Where two headings read alike, the source gives them in different places.",
  "data": [
    {"smiles": "CC(C)[C@@H]1N=C(c2ccccc2F)c2cc(Cl)ccc2NC1=S", "note": "[Example 5, (3S)-7-chloro-5-(2-fluorophenyl)-3-propan-2-yl-1,3-dihydro-1,4-benzodiazepine-2-thione]", "values": [
      {"measurement": "IC50", "setting": "[1]", "value": 80, "unit": "nM"},
      {"measurement": "Ki", "setting": "[2]; GABA-A alpha 5 (second value, Ki implied), second value", "value": "> 36000", "unit": "nM"},
      {"measurement": "Ki", "setting": "[2]; GABA-A alpha5: Ki", "value": "> 24000", "unit": "nM"},
      {"measurement": "Oocyte EP effect", "setting": "[3]", "value": "no effect"}
    ]},
    {"smiles": "CC(=O)OC1C=C(c2ccccc2F)c2cc(Cl)ccc2NC1=S", "note": "(centres unmarked) [Example 14, [7-chloro-5-(2-fluorophenyl)-2-thioxo-1,3-dihydro-1-benzazepin-3-yl]acetate]", "values": [
      {"measurement": "IC50", "setting": "[1]; CHO human M1, with EC20 of acetylcholine, FLIPR, read-out: IC50 value hM1 (converted)", "value": 649, "unit": "nM"},
      {"measurement": "melting point", "value": "214 to 215", "unit": "°C"}
    ]},
    {"smiles": "S=C1Nc2ccc(Cl)cc2C(c2ccccc2Cl)=NC1Cc1ccccc1", "note": "(centres unmarked) [Example X1, 3-Benzyl-7-chloro-5-(2-chloro-phenyl)-1,3-dihydro-benzo[1,4]diazepine-2-thione]", "values": [
      {"measurement": "activity at M1 receptor", "setting": "[1]", "value": "no activity"}
    ]},
    {"smiles": "S=C1Nc2ccc(Cl)cc2C(c2ccccc2Cl)=NC1CC1CC1", "note": "(centres unmarked) [Example X2, 7-chloro-5-(2-chlorophenyl)-3-(cyclopropylmethyl)-1H-benzo[e][1,4]diazepine-2(3H)-thione]", "values": [
      {"measurement": "activity at M1 receptor", "setting": "[1]", "value": "no activity"}
    ]}
  ]
}
